Source: patent US20250145580A1, “AN IMPROVED PROCESS FOR THE PREPARATION OF FERRIC MALTOL” (RK Pharma Inc., priority 2021, published 2025)

What was measured:
[1] = Stress Stability study of Polymorphic Form Alpha (PXRD after stress); format: physicochemical
[2] = Stress Stability study of Polymorphic Form RK2 (XRPD after stress); format: physicochemical

PXRD ([1]; 75% RH, 15 h) | PXRD ([1]; 90% RH, 15 h) | PXRD ([1]; Drying at 30° C., 3 h) | PXRD ([1]; Drying at 70° C., 3 h) | PXRD ([1]; Drying at 100° C., 3 h) | PXRD ([1]; Grinding, 10 min) | PXRD ([1]; Hexane Slurry) | PXRD ([1]; Pressure study (17 Kg/cm2; 15 min)) | XRPD pattern after subjecting to various stress conditions ([1]; various stress conditions as mentioned in the Table 1) | XRPD ([2]; 50% RH, 12 h) | XRPD ([2]; 75% RH, 12 h) | XRPD ([2]; 90% RH, 12 h) | XRPD ([2]; Drying at 100° C., 3 h) | XRPD ([2]; Drying at 150° C., 3 h) | XRPD ([2]; MTBE Slurry, 12 h) | XRPD ([2]; Micronization study) | XRPD ([2]; Pressure study (Pressure: 17.5 Kg/cm^2)) | XRPD pattern after subjecting to various stress conditions ([2]; various stress conditions as mentioned in the Table 2) | SMILES
Form Alpha | Form Alpha | Form Alpha | Form Alpha | Form Alpha | Form Alpha | Form Alpha | Form Alpha | stable | – | – | – | – | – | – | – | – | – | Cc1occc(=O)c1[O-].Cc1occc(=O)c1[O-].Cc1occc(=O)c1[O-].[Fe+3] [Polymorphic Form Alpha, 3-hydroxy-2-methyl-4H-pyrane-4-one iron (III) complex (3:1)]
– | – | – | – | – | – | – | – | – | Form RK2 | Form RK2 | Form RK2 | Form RK2 | Form RK2 | Form RK2 | Form RK2 | Form RK2 | stable | Cc1occc(=O)c1[O-].Cc1occc(=O)c1[O-].Cc1occc(=O)c1[O-].[Fe+3] [Polymorphic Form RK2]
